The values below come from US11447471B2, “α,β-unsaturated amide compound” (KYOWA KIRIN CO., LTD., priority 2017, dated 2022).

Each structure is given as a SMILES string.

By GI50 is commonly meant the concentration giving 50% growth inhibition. Higher therefore signals lower sensitivity of the cells.

Common to all, as to format: cell-based
In one test the test system is OVTOKO cells. Kind of test: Cell growth inhibitory effect on human ovarian cancer cell line (cell counting kit 8, 6 days). Particulars: 144 h, 6 days incubation. The gist of the method:
(§1)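 Cells in RPMI1640 with 10% FBS plated at 500 cells/well (OVTOKO 250/well) and cultured one day at 37° C, 5% CO2. Serially diluted compound added (final DMSO 0.1%) for 6 days; viable cells measured at addition and day 6 with CCK-8, absorbance 450 nm. GI50 derived from growth inhibition rate.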
A general note: Tetrazolium assays rely on reduction of a dye to a coloured formazan, in cell work by metabolically active cells.

A further test relates to NCI-H322 cells. Kind of test: Cell growth inhibitory effect on human lung cancer cell line (cell counting kit 8, 6 days). Particulars: 144 h; human lung cancer cell line NCI-H322, 6 days incubation. The gist of the method: as §1
Another test relates to HuH28 cells. Put plainly: Cell growth inhibitory effect on human liver cancer cell line (cell counting kit 8, 6 days). The following applies: 144 h; human liver cancer cell line HuH28, 6 days incubation. From the text:
NCI-H226 cells, a human mesothelioma cell line (ATCC, CRL-5826), NCI-H322 cells, a human lung cancer cell line (the European Collection of Authenticated Cell Cultures, 95111734), OUTOKO cells, a human ovarian cancer cell line (JCRB cell bank, KRB1048) and […] were each subcultured by keeping the cell density under 80% in a RPMI1640 culture medium with 10% fetal bovine serum (FBS). NCI-H226 cells, NCI-H322 cells and SSP-25 cells were each suspended in the RPMI1640 culture medium mentioned above, and plated to a 96-well flat-bottom plate at 500 cells/well in each well, and incubated at 37° C. in an incubator with 5% CO2 for one day. After the incubation, the evaluation of cell growth inhibitory activity was started. OVTOKO cells were suspended in the RPMI1640 culture medium mentioned above, and plated to a 96-well flat-bottom plate at 250 cells/well in each well, and incubated it at 37° C. in an incubator with 5% CO2 for one day. After the incubation, the evaluation of the cell growth inhibitory activity was started. The next day, a test compound was serially diluted to 5 times of its final concentration in the RPM11640 culture medium mentioned above, and the diluted solution was added to each well. In this case, the final concentration of DMSO in each well was adjusted to 0.1%. After the test compound was added, cells were incubated at 37° C. in an incubator with 5% CO2 for 6 days. At the addition of the test compound and 6 days after the addition, the cell counting measurement was performed using a cell counting kit 8 (made by DOJINDO) according to a protocol equivalent to DOJINDO's recommendation. A reagent contained in the kit was added to each plate and color reaction was performed for 2 or 3 hours at 37° C. in an incubator with 5% CO2. After the reaction, an absorbance at wavelength of 450 nm was measured using a microplate reader. A growth inhibition rate was calculated according to the following formula, from which the concentration of a test compound at which cell growth was inhibited by 50% (GI50 value) was determined.

Another test concerns NCI-H226 cells. Kind of test: Cell growth inhibitory effect on human mesothelioma cell line (cell counting kit 8, 6 days). The following applies: NCI-H226, 144 h. The method in brief:
as §1

Consider `C=CC(=O)NCc1ccc(Oc2ccc(C(F)(F)F)cn2)c2nc(C)oc12` [Compound 250, N-{(2-Methyl-4-[{5-(trifluoromethyl)pyridin-2-yl}oxy]benzo[d]oxazol-7-yl)methyl}acrylamide], for which the GI50 in the test on OVTOKO cells is not above 3000 nM; with NCI-H322 cells, less than 1000 nM; in the test with HuH28 cells it was less than 3000 nM; in the test with NCI-H226 cells, less than 100 nM.
On to `C=CC(=O)NCc1ccc(Oc2ccc(C(F)(F)F)cc2)c2nc(C)sc12` [Compound 256, N-([2-Methyl-4-{4-(trifluoromethyl)phenoxy}benzo[d]thiazol-7-yl]methyl)acrylamide], for which the GI50 is not above 3000 nM in the test with OVTOKO cells, less than 1000 nM in the test with NCI-H322 cells, less than 3000 nM in the test with HuH28 cells and less than 100 nM in the test with NCI-H226 cells.
Consider `C=CC(=O)NCc1ccc(C(O)c2ccc(C(F)(F)F)cc2)c2nc(C)oc12` (stereo not shown) [Compound 268, N-{(4-[Hydroxy{4-(trifluoromethyl)phenyl}methyl]-2-methylbenzo[d]oxazol-7-yl)methyl}acrylamide], for which the GI50 in the test with OVTOKO cells was not above 3000 nM; with NCI-H322 cells it was less than 1000 nM; with HuH28 cells it was less than 3000 nM; in the test with NCI-H226 cells, 100 to 1000 nM.
In the same order, the values of `C=CC(=O)NCc1ccc(N(C)c2ccc(C(F)(F)F)cc2)c2nc(C)oc12` [Compound 269, N-{(2-Methyl-4-[methyl{4-(trifluoromethyl)phenyl}amino]benzo[d]oxazol-7-yl)methyl}acrylamide] are not above 3000 nM, less than 1000 nM, less than 3000 nM and 100 to 1000 nM.
Consider `C=CC(=O)NCc1ccc(Nc2ccc(C(F)(F)F)cc2)c2nc(C)oc12` [Compound 270, N-{(2-Methyl-4-[{4-(trifluoromethyl)phenyl}amino]benzo[d]oxazol-7-yl)methyl}acrylamide], for which the GI50 with OVTOKO cells is not above 3000 nM; with NCI-H322 cells, less than 1000 nM; in the test on HuH28 cells it was less than 3000 nM; in the test with NCI-H226 cells, less than 100 nM.
In the same order, the values of `C=CC(=O)NCc1ccc(Sc2ccc(C(F)(F)F)cc2)c2nc(C)oc12` [Compound 272, N-{(2-Methyl-4-[{4-(trifluoromethyl)phenyl}thio]benzo[d]oxazol-7-yl)methyl}acrylamide] are not above 3000 nM, less than 1000 nM, less than 3000 nM and less than 100 nM.
In the same order, the values of `C=CC(=O)NCc1ccc(Oc2ccc(N(C)C)cc2)c2nc(C)oc12` [Compound 275, N-([4-{4-(Dimethylamino)phenoxy}-2-methylbenzo[d]oxazol-7-yl]methyl)acrylamide] are not above 3000 nM, less than 1000 nM, less than 3000 nM and 100 to 1000 nM.
For `C=CC(=O)NCc1ccc(Oc2ccc(C(F)(F)F)c(F)c2)c2nc(C)oc12` [Compound 277, N-([4-{3-Fluoro-4-(trifluoromethyl)phenoxy}-2-methylbenzo[d]oxazol-7-yl]methyl)acrylamide], the GI50 in the test with OVTOKO cells is not above 3000 nM; in the test on NCI-H322 cells it was less than 1000 nM; in the test on HuH28 cells it was less than 3000 nM; in the test on NCI-H226 cells, less than 100 nM.
As to `C=CC(=O)NCc1ccc(Oc2ccc(C#N)cc2)c2nc(C)oc12` [Compound 278, N-[{4-(4-Cyanophenoxy]-2-methylbenzo[d]oxazol-7-yl}methyl)acrylamide], the GI50 was not above 3000 nM in the test on OVTOKO cells, less than 1000 nM in the test on NCI-H322 cells, less than 3000 nM in the test on HuH28 cells and 100 to 1000 nM with NCI-H226 cells.
In the same order, the values of `C=CC(=O)NCc1ccc(Oc2cccc(C(F)(F)F)c2)c2nc(C)oc12` [Compound 279, N-([2-Methyl-4-{3-(trifluoromethyl)phenoxy}benzo[d]oxazol-7-yl]methyl) acrylamide] are not above 3000 nM, less than 1000 nM, less than 3000 nM and less than 100 nM.
In the same order, the values of `C=CC(=O)NCc1ccc(Oc2ccc(OC)cc2)c2nc(C)oc12` [Compound 280, N-[{4-(4-Methoxyphenoxy]-2-methylbenzo[d]oxazol-7-yl}methyl)acrylamide] are not above 3000 nM, less than 1000 nM, less than 3000 nM and less than 100 nM.
Regarding `C=CC(=O)NCc1ccc(Oc2ccc(Cl)cc2)c2nc(C)oc12` [Compound 281, N-[{4-(4-Chlorophenoxy]-2-methylbenzo[d]oxazol-7-yl}methyl)acrylamide], the GI50 with OVTOKO cells was not above 3000 nM; in the test with NCI-H322 cells, less than 1000 nM; in the test with HuH28 cells, less than 3000 nM; in the test on NCI-H226 cells it was less than 100 nM.
In the same order, the values of `C=CC(=O)NCc1ccc(OCc2ccccc2)c2nc(C)oc12` [Compound 282, N-[{4-(Benzyloxy)-2-methylbenzo[d]oxazol-7-yl}methyl]acrylamide] are not above 3000 nM, less than 1000 nM, less than 3000 nM and less than 100 nM.
With `C=CC(=O)NCc1ccc(Oc2ccc(C(F)(F)F)nc2)c2oc(C)nc12` [Compound 283, N-{(2-Methyl-7-[{6-(trifluoromethyl)pyridin-3-yl}oxy]benzo[d]oxazol-4-yl)methyl}acrylamide], the GI50 is not above 3000 nM in the test on OVTOKO cells, less than 1000 nM in the test on NCI-H322 cells, less than 3000 nM in the test with HuH28 cells and less than 100 nM in the test on NCI-H226 cells.
For `C=CC(=O)NCc1ccc(Oc2ccc(C(F)(F)F)cn2)c2oc(C)nc12` [Compound 284, N-{(2-Methyl-7-[{5-(trifluoromethyl)pyridin-2-yl}oxy]benzo[d]oxazol-4-yl)methyl}acrylamide], in that order: not above 3000 nM, less than 1000 nM, less than 3000 nM and less than 100 nM.
Consider `C=CC(=O)NCc1ccc(Oc2ccc(C(F)(F)F)nc2)c2nc(C)sc12` [Compound 285, N-{(2-Methyl-4-[{6-(trifluoromethyl)pyridin-3-yl}oxy]benzo[d]thiazol-7-yl)methyl}acrylamide], for which the GI50 in the test with OVTOKO cells is not above 3000 nM; with NCI-H322 cells it was less than 1000 nM; with HuH28 cells it was less than 3000 nM; in the test on NCI-H226 cells it was less than 100 nM.
For `C=CC(=O)NCc1ccc(Oc2ccc(C(F)(F)F)cn2)c2nc(C)sc12` [Compound 286, N-{(2-Methyl-4-[{5-(trifluoromethyl)pyridin-2-yl}oxy]benzo[d]thiazol-7-yl)methyl}acrylamide], in that order: not above 3000 nM, less than 1000 nM, less than 3000 nM and less than 100 nM.
For `C=CC(=O)NCc1ccc(Oc2ccc(C(F)(F)F)nc2)c2sc(C)nc12` [Compound 287, N-{(2-Methyl-7-[{6-(trifluoromethyl)pyridin-3-yl}oxy]benzo[d]thiazol-4-yl)methyl}acrylamide], in that order: not above 3000 nM, less than 1000 nM, less than 3000 nM and less than 100 nM.
For `C=CC(=O)NCc1ccc(Oc2ccc(C(F)(F)F)cn2)c2sc(C)nc12` [Compound 288, N-{(2-Methyl-7-[{5-(trifluoromethyl)pyridin-2-yl}oxy]benzo[d]thiazol-4-yl)methyl}acrylamide], in that order: not above 3000 nM, less than 1000 nM, less than 3000 nM and less than 100 nM.
